Experimental findings from a melting point compilation (Tetko et al.; mined from patent text by program, amines drawn as free bases though some values may be those of a salt) are described below.

In general, melting point refers to the temperature of the solid-liquid transition. Turning to `Cc1cccc(NC(=O)NC2CN(C(=O)C(C)(C)C)c3ccccc3N(CC(C)C)C2=O)c1` (stereo not drawn), the melting point worked out at 152 °C.
The value for `CCC1Cc2cc(OCC(=O)O)c(Cl)cc2C1=O` (stereo not drawn) was 132 to 138 °C; that for `Cc1cc(-c2ccc(C(F)(F)F)nc2)cc(-c2cccc(-c3cccc(S(N)(=O)=O)c3)c2)n1` was 227 to 232 °C.
The value for `Cc1cc(C)c(CON)c(C)c1` was 54 to 55 °C; that for `CC1(Cc2ccccc2)CCCNC1=O` (stereo not drawn) was 76 to 78 °C.
The value for `Cn1ncc(/C=C/C(=O)Nc2ccc(Cc3nc4ccccc4o3)cc2)c1-c1ccc(F)cc1` was 195 to 196 °C; that for `Nc1ncc2cc(-c3c(Cl)cccc3Cl)c(=O)n(Cc3cccc(Br)c3)c2n1` was 215 °C.
In the case of `Cc1cccc(C(=O)NN2NC=CC2C(=O)NCC(O)c2ccc(C(F)(F)F)cc2)n1` (stereo not drawn), the melting point lay in the range of 250 to 251 °C.
For `CS(=O)(=O)c1cc(OCc2ccccc2)c(C(=O)O)s1` the value was 188 to 189 °C; for `CCSc1cc(C)nc(SCC)c1NC(=O)CCCSc1nc2cccc(C(F)(F)F)c2o1`, 148 to 150 °C; for `CCOC(=O)Nc1cccc(C(=O)C=CN(C)C)c1`, 121 to 122 °C.
For `N#CC(C(=O)Nc1ccccc1)C(=O)c1nn(-c2ccccc2)c2c1Cc1ccccc1-2` (stereo not drawn) the value was 273 to 277 °C; for `CN(C)c1ccc(NC(=O)N(Cc2ccco2)C[C@H]2CC[C@H](CN(Cc3ccco3)C(=O)Nc3ccc(N(C)C)cc3)CC2)cc1`, 129 to 132 °C.
The value for `CCC1=c2ccccc2=NC1=O` was 100 to 101 °C; that for `COC(=O)c1ccc(OC)c(OC)c1N` was 66 to 67 °C; that for `CCOC(=O)c1cn(C)nc1Cl` was 65 to 66 °C.
On to `COc1cc(OC)c(C2=CCN(C)CC2)c(OC)c1`, for which the melting point lay within 112 to 114 °C.
For `CCCCCCCCCOP(=O)(CNC(=O)Nc1c(C(C)C)cccc1C(C)C)OCC` (stereo not drawn) the value was 66 to 70 °C; for `CN(C)C(=O)N1CCN(Cc2ccc3c(c2)-c2[nH]nc(-c4ccsc4)c2C3)CC1`, 214 to 216 °C; for `CC(C)(C)c1ccc(S(=O)(=O)N2c3ccccc3C[C@H]2C(=O)NCc2cccc(O)c2)cc1`, 94 °C.
The value for `S=C(NCCC1=CCCCC1)Nc1nccs1` was 147 to 148 °C.
The value for `COc1cc(Cl)nc(NC(=O)NS(=O)(=O)c2ccccc2OC(Cl)=CCl)n1` was 196 to 198 °C; that for `Oc1cc(-c2ncnc(C(F)F)c2Cl)c(F)cc1Cl` was 141 to 143 °C; that for `CCN(CC)Cc1cnc(-c2ncn3c2CN(C)C(=O)c2cc(F)ccc2-3)o1` was 182 to 184 °C.
`Cc1cc(=O)n(-c2ccc(Cl)cc2F)c(=O)n1C`: the melting point turned out to be 145 °C.
For `O=C(N[C@H]1CC[C@H](CCN2CCN(c3nccc4c3OCC4)CC2)CC1)c1ccc(N2CCOCC2)nc1` the value was 231 °C.
Molecule `CCCNC(=O)Cn1c(-c2ccc(Cl)cc2)nc2cccnc21` returned a melting point of 220 to 221 °C.
For `CC12CCC(C1)C(C)(C)C2(CCO)SN=O` (stereo not drawn) the value was 81 to 85 °C; for `OCc1ccc(C2=NOC(c3cc(Cl)cc(Cl)c3)(C(F)(F)F)C2)cc1Cl` (stereo not drawn), 32 to 35 °C.
For `CCCCC(=N)Nc1ccccc1N1CCOCC1` the value was 135 to 136 °C; for `CN1CNC(=S)N(c2ccc([N+](=O)[O-])cc2)C1`, 170 to 172 °C; for `Cc1nn(-c2ccc(F)cc2)cc1C(=O)Nc1ccc(CC(C)C)c(C#N)c1`, 178 to 179 °C.
For `CC(C)Oc1ccc(/C=C(\NC(=O)c2ccc(OCCCC3CC3)cc2)C(=O)NCCO)cc1` the value was 64 to 66 °C.
Molecule `CC(C)Oc1cc(CCC(=O)NS(=O)(=O)Cc2ccccc2)n(Cc2ccc(Cl)cc2Cl)n1` registered a melting point of 183 to 184 °C.
For `COc1ccc(C2(C#N)CCC(NS(C)(=O)=O)CC2)c2c1oc1ccccc12` (stereo not drawn) the value was 176 to 178 °C.
The value for `Cc1ccc(N2C(=O)C(O)=C(C(=O)c3ccc(OC(F)(F)F)cc3)C2c2ccc(Cn3ncnn3)cc2)nn1` (stereo not drawn) was 258 °C; that for `Clc1nc2ccccc2n2cnc(-c3nc(C4CC4)no3)c12` was 166 to 168 °C; that for `O=C(O)C1CSC(C2CCCCC2)N1` (mixture of isomers) was 248 °C.
Take `CCC(=O)NCCC1c2cc(OC)ccc2-c2ccc(OC)cc21`: the melting point is 139 to 140 °C.
For `O=C(C=C1SC(Nc2c(Cl)cccc2Cl)=NC1=O)NCc1ccccc1` the value was 205 to 206 °C; for `c1ccc(Cn2ccc(CN3CCC(c4ccccc4)(c4ccccc4)CC3)n2)cc1`, 167 to 168 °C; for `CSc1c(Cl)ccc(C(=O)O)c1F`, 183 to 185 °C.
The value for `CC(C)(C)c1ccc(NC(=O)c2cccc3cc(Oc4cc(CO)ncn4)ccc23)cc1` was 202 to 203 °C; that for `COC(=O)c1cccc(Oc2ccnc(Cl)c2)n1` was 89 °C; that for `CC(C)(C)OC(=O)Nc1ccc(NC(=O)C(=O)N2CCC(Cc3ccccc3)CC2)cc1` was 177 to 179 °C.
For `Cn1c2c(ccc1=O)C(NCCc1ccc(Cl)cc1)CCC2` (stereo not drawn) the value was 110 to 112 °C; for `COC(=O)C1CC1c1ccc(OCc2cccc(Oc3ccccc3)c2)cc1` (stereo not drawn), 55 to 56 °C; for `CCOC(=O)/C=C/c1cn(Cc2ccc(OCc3csc(-c4ccccc4)n3)cc2)nc1-c1cccs1`, 104 to 105 °C.
In turn, `COc1ccc(OC)c(C=O)c1C` displayed a melting point of 61 to 61.5 °C.
Take `COc1cc(=O)c(-c2ccnn2-c2ccccc2)nn1-c1cccc(C(F)(F)F)c1`: the melting point was 139 to 141 °C.
Take `Cc1cc(-c2ccc(Cl)cc2)nc2c(C(=O)O)cnn12`: the melting point was 233 to 235 °C.
For `CCOC(=O)Nn1c(C)ccc1C(=O)c1ccccc1Cl` the value was 82 to 84 °C; for `COc1ccc(C(=O)N2CCC(N(C)c3ccccc3Cl)c3ccccc32)cc1OC` (stereo not drawn), 146 to 147 °C; for `CCCCCCCCCCCCCCCCCCCCOC(=O)Nc1ccc(NC(=O)NS(=O)(=O)c2ccc3ccccc3c2)cc1`, 181 °C.
For `CN(C)C=C1CCN(C(=O)c2ccc([N+](=O)[O-])cc2)c2ccccc2C1=O` the value was 180 to 183 °C; for `Cc1cc(NC(=O)c2c(Cl)cccc2Cl)c2nccc(NNC(C)C)c2c1`, 154 to 156 °C.
The molecule `COC(=O)c1cccc2nc(SCCN3CCN(CC(=O)Nc4c(SC(C)C)cc(C)nc4SC(C)C)CC3)oc12` yielded a melting point of 60 to 63 °C.
For `O=C(O)CNC(=Nc1ccc(C(=O)O)cc1)NCC1CCCCC1` the value was 164 °C; for `CNC(=NCCSCc1ccc2nc[nH]c2c1)NC#N`, 191 °C; for `CCCN(CCC)C(=O)c1cc(C(=O)O)cc(-c2ncco2)c1`, 131 to 133 °C.
The value for `CCCCCCCCCCCCCCOc1cc(C(=O)Cl)ccc1OC` was 60 to 61 °C; that for `CC(C)c1cccc(C(C)C)c1NC(=O)[C@H](Cc1ccc(OCc2ccccc2)cc1)NC(=O)OCC1c2ccccc2-c2ccccc21` was 168 to 171 °C; that for `OC(c1ccccc1)c1ccc2[nH]nnc2c1` (stereo not drawn) was 143 °C.
